Experimental data published in patent US8420865B2, “Phosphine compound, process for producing the same, and peroxide scavenger using the same” (Fukuoka University, priority 2008, dated 2013).

What was measured:
HepG2 cells [1] = experiment: Loading into HepG2 cells and oxidation stimulated with tert-butoxyhydroperoxide (tBHP), fluorescence microscopy; type: cell-based; settings: MitoDPPP 16 μM loaded 2 minutes, ten minutes after tBHP, FIG. 3
Method: Loading of MitoDPPP into HepG2 cells and oxidation stimulated with tert-butoxyhydroperoxide (tBHP) were monitored. A 0.1% dimethylsulfoxide solution of MitoDPPP (16 μM) was prepared. The solution was loaded into HepG2 cells for 2 minutes to stain the cells. The cells were washed with PBS and observed under a fluorescence microscope. Next, tert-butoxyhydroperoxide (tBHP) was added to the cells. Ten minutes later, the cells were observed under the fluorescence microscope.

[2] = Oxidation of MitoDPPP with hydrogen peroxide in dimethylsulfoxide solution, fluorescence intensity over time; settings: MitoDPPP 16 μM in dimethylsulfoxide, 10 mM H2O2, 10 minutes, FIG. 1
Method: The time scale changes in fluorescence intensity were monitored for the oxidation with hydrogen peroxide of [3-(4-Phenoxyphenylphosphinopyrenylphosphino)propyl]triphenylphosphonium iodide [Ia] (MitoDPPP) obtained in EXAMPLE 1.
After 10 mM H2O2 was added dropwise to a dimethylsulfoxide solution of MitoDPPP (16 μM), fluorescence intensities at the fluorescence wavelength of 380 nm were measured for 10 minutes.

HepG2 cells [3] = experiment: Loading of MitoDPPP into HepG2 cells, fluorescence microscopy, comparison with Mito Tracker Green FM; type: cell-based; settings: fluorescence microscope, comparison/double-staining with mitochondria-selective fluorescent dye, FIG. 2
Method: Loading of MitoDPPP into HepG2 cells was examined. A 20% dimethylsulfoxide solution of MitoDPPP (16 μM) was prepared and the solution was loaded into HepG2 cells for 10 minutes to stain the cells. After washing with PBS, the cells were observed under a fluorescence microscope.

[4] = Oxidation of MitoDPPP in an aqueous solution with hydrogen peroxide and tBHP; settings: FIG. 4
HepG2 cells [5] = experiment: Oxidation of MitoDPPP loaded into HepG2 cells, hydrogen peroxide compared with tBHP, microplate reader; type: cell-based; settings: MitoDPPP 16 μM loaded 10 minutes, FIG. 4
Method: The oxidation of MitoDPPP loaded into HepG2 cells was compared for hydrogen peroxide and tBHP. A 0.1% dimethylsulfoxide solution of MitoDPPP (16 μM) was prepared. The solution was loaded into HepG2 cells for 10 minutes. After washing the cells with PBS, hydrogen peroxide was added to the cells and the increase in fluorescence intensity was monitored on a microplate reader.

SMILES: [I-].c1ccc(Oc2ccc(P(CCC[P+](c3ccccc3)(c3ccccc3)c3ccccc3)c3ccc4ccc5cccc6ccc3c4c56)cc2)cc1 (stereo not drawn) [MitoDPPP]
- brightness of stained cells after tBHP loading compared to before (HepG2 cells [1]): increased
- fluorescence intensity at the fluorescence wavelength of 380 nm on oxidation with hydrogen peroxide [2]: increase in the fluorescence intensity
- localization in cells (HepG2 cells [3]): localized in mitochondria
- oxidation with hydrogen peroxide in an aqueous solution ([4]; hydrogen peroxide): proceeds rapidly
- oxidation with tBHP in an aqueous solution ([4]; tBHP): proceeds rapidly
- oxidation with hydrogen peroxide of MitoDPPP loaded into HepG2 cells (HepG2 cells [5]): not oxidized
